How the values were obtained:
[1] = target: T1, E-selectin (Homo sapiens) (UniProt P16581); assay: Compound was evaluated for in vitro affinity towards Selectin E, activity expressed as IC50 relative to Sialyl lewisX
T1 sequence (whole entry): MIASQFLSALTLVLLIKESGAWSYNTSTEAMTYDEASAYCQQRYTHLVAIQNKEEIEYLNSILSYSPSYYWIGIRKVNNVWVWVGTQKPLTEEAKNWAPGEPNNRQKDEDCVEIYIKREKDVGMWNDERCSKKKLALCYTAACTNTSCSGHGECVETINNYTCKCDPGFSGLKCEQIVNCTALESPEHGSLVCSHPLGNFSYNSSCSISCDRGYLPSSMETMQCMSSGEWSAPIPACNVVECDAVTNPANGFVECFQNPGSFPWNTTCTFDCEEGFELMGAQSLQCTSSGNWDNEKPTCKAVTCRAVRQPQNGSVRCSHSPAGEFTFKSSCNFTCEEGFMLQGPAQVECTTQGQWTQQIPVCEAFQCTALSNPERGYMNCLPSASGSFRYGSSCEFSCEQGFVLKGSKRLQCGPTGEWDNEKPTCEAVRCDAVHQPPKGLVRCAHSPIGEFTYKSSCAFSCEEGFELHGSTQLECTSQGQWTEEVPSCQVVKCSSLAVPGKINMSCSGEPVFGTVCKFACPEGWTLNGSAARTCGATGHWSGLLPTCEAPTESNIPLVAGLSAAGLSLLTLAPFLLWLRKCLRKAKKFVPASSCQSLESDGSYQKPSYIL

[2] = target: T1, E-selectin (Homo sapiens); assay: Compound was evaluated for in vitro affinity towards Selectin E

## O=C(O)CC[C@@H]1O[C@@H](O[C@@H]2CCCC[C@H]2O[C@@H]2O[C@@H](CO)[C@H](O)[C@H](O[C@@H](Cc3ccccc3)C(=O)O)[C@@H]2O)[C@@H](O)[C@@H](O)[C@@H]1O
[1]
  RIC50: 0.39

## O=C1CC[C@@H]2O[C@@H](O[C@@H]3CCCC[C@H]3O[C@@H]3O[C@@H](CO)[C@H](O)[C@H](O[C@@H](Cc4ccccc4)C(=O)O)[C@H]3O1)[C@@H](O)[C@@H](O)[C@@H]2O
[1]
  RIC50: 2.8

## COC(=O)CCCCCCCCO[C@@H]1O[C@@H](CO)[C@@H](O[C@@H]2O[C@@H](CO)[C@H](O)[C@H](O[C@]3(C(=O)O)C[C@@H](O)[C@@H](NC(C)=O)[C@H]([C@H](O)[C@H](O)CO)O3)[C@@H]2O)[C@H](O[C@@H]2O[C@@H](C)[C@@H](O)[C@H](O)[C@@H]2O)[C@@H]1NC(C)=O
[2]
  RIC50: 1

From ChEMBL document CHEMBL1130576, “Design and synthesis of a macrocyclic E-Selectin antagonist” (Bioorg Med Chem Lett, 1997)
